Measured values as given in US20210253598A1, “ARYL ANNULATED MACROCYCLIC INDOLE DERIVATIVES” (priority 2017, published 2021).
Several values for one entry are separate records, joined by “and”; a condition that tells them apart may be missing. Identical values can stand only once. Counter-ions that a name gives are not always drawn. Like-named read-outs stand apart in the source and are kept apart here.

Tests used:
SUDHL10 [1] = assay: Induction of caspase-3/7 activity in SUDHL10 cells (Assay 4); assay type: cell-based; details: SUDHL10, 3 hours treatment, Caspase-Glo 3/7, median, read-out: Caspase SUDHL10 [M] (median)
Summary of the method: (§1)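 Luminescent Caspase-Glo 3/7 read-out in SUDHL5 and SUDHL10 cells after 3 h compound exposure at 37 °C, followed by 1 h reagent incubation.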

A2780 = assay: Anti-proliferative effect in A2780 cells, CellTiter-Glo (Assay 7); assay type: cell-based; details: A2780, 72 hours incubation, CellTiter-Glo, several values per example, read-out: Antiproli A2780
Summary of the method: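 Cells were plated and incubated overnight at 37 °C alongside a day 0 reference plate, then exposed to compound for 72 h. Viability was read by CellTiter-Glo luminescence, and IC50s were calculated using day 0 values and DMSO controls as references.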

SUDHL5 [2] = assay: Induction of cytotoxicity in SUDHL5 cells, CellTiter-Glo (Assay 6); assay type: cell-based; details: SUDHL5, 5 hours incubation, median, read-out: Cytotox SUDHL5 [M] (median)
Summary of the method: (§2)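 Short-exposure cytotoxicity: 5 h compound, 37° C, humidified; CellTiter-Glo luminescence; cell-free medium control; edge wells omitted.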

SUDHL10 [3] = assay: Induction of cytotoxicity in SUDHL10 cells, CellTiter-Glo (Assay 6); assay type: cell-based; details: SUDHL10, 5 hours incubation, median, read-out: Cytotox SUDHL10 [M] (median)
Summary of the method: as §2

MCL-1 = MCL-1 (Homo sapiens, UniProt Q07820, K194A/K197A/R201A); assay: Protein-compound interaction assay, surface plasmon resonance (SPR assay, Assay 8); assay type: binding; details: geometric mean; for Kd: KD [M]
From the text: Protein-Compound Interaction Assay (SPR Assay)
The ability of the compounds described in this invention to bind to MCL-1 may be determined using surface plasmon resonance (SPR). This allows for the quantification of binding in terms of the equilibrium dissociation constant (KD [M]), as well as association and dissociation rate constants (kon [1/M 1/s] and koff [1/s], respectively). The measurements may be performed using Biacore® T200 or Biacore® S200 instruments (GE Healthcare).
Briefly, carboxymethylated dextran biosensor chips (Series S Sensor Chip CM5, GE Healthcare) were activated with 1-ethyl-3-(3-dimethylaminopropyl)-carbodiimide hydrochloride (EDC) and N-hydroxysuccinimide (NHS) according to the supplier's instructions. MBP-MCL-1 was diluted in 1×PBS-P+ (GE Healthcare) and injected on the activated chip surface. Subsequently, a solution of 1 M ethanolamine-HCl (GE Healthcare) was injected to block unreacted groups, resulting in approximately 400-2500 response units (RU) of immobilized protein. A reference surface was generated by treatment with NHS-EDC and ethanolamine-HCl. […] Compounds were injected for 60 s followed by a dissociation time of up to 1000 s.
The double-referenced sensorgrams were fit to a simple reversible Langmuir 1:1 reaction mechanism as implemented in the Biacore® T200 and S200 evaluation software (T200 evaluation software version 2.0 and S200 evaluation software version 1.0, GE Healthcare).

SUDHL5 [4] = assay: Induction of caspase-3/7 activity in SUDHL5 cells (Assay 4); assay type: cell-based; details: SUDHL5, 3 hours treatment, Caspase-Glo 3/7, median, read-out: Caspase SUDHL5 [M] (median)
Summary of the method: as §1

[5] = SPR, immobilized MBP-MCL-1, 25° C.

Chain of MCL-1 (Q07820 173-321 K194A/K197A/R201A, looked up): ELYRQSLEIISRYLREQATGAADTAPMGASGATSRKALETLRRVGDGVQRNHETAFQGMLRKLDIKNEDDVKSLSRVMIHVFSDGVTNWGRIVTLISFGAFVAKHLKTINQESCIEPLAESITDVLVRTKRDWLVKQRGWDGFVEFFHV

Row | Compound | EC50 (SUDHL10 [1]; Homo sapiens, SU-DHL10, 3 h) | IC50 (A2780; Homo sapiens, A2780, 72 h) | IC50 (SUDHL5 [2]) | IC50 (SUDHL10 [3]) | Kd (MCL-1; [5]) | koff (MCL-1; read-out: koff [1/s], SPR, immobilized MBP-MCL-1, 25° C.) | kon (MCL-1; read-out: kon [1/M 1/s], SPR, immobilized MBP-MCL-1, 25° C.) | EC50 (SUDHL5 [4]; Homo sapiens, SU-DHL-5, 3 h) | EC50 (SUDHL10 [1]) | IC50 (A2780) | koff (MCL-1; [5]) | kon [1/M 1/s] (MCL-1; [5]) | EC50 (SUDHL5 [4])
1 | Cc1c2c(nn1C)COCc1ccccc1Cn1c(C(=O)O)c(CCCOc3cccc4cc(F)ccc34)c3ccc(F)c-2c31 (single isomer, unassigned; enantiomer 1) [Example 65, (−)-3-fluoro-17-{3-[(6-fluoronaphthalen-1-yl)oxy]propyl}-4,5-dimethyl-5,7,9,14-tetrahydroindolo[7,1-fg]pyrazolo[3,4-d][2,8]benzoxazacycloundecine-16-carboxylic acid-N-ethylethanamine Salt (Enantiomer 1)] | 2.1e-06 M | 10.1 µM | 1e-06 M | 2.1e-06 M | 1.4e-09 M | 0.011 s⁻¹ | 8e+06 M⁻¹ s⁻¹ | 8.1e-07 M | – | – | – | – | –
2 | Cc1c2c(nn1C)COCc1ccccc1Cn1c(C(=O)O)c(CCCOc3cccc4cc(F)ccc34)c3ccc(Cl)c-2c31 (single isomer, unassigned; enantiomer 2) [Example 50, (+)-3-Chloro-17-{3-[(6-fluoronaphthalen-1-yl)oxy]propyl}-4,5-dimethyl-5,7,9,14-tetrahydroindolo[7,1-fg]pyrazolo[3,4-d][2,8]benzoxazacycloundecine-16-carboxylic acid-N-ethylethanamine Salt (Enantiomer 2)] | – | – | 9.3e-07 M | 2.8e-06 M | 3.8e-09 M | – | – | – | 3.2e-06 M | 11.7 µM and 8.65 µM | 0.0061 s⁻¹ | 1.6E6 1/M 1/s | 7.3e-07 M
